Data taken from patent US8809321B2, “Diaryl ether linked pyrrolo [2,1-c][1,4] benzodiazepine hybrids and process for the preparation thereof” (Council of Scientific and Industrial Research, priority 2011, dated 2014).
Like-named read-outs stand apart in the source and are kept apart here.

Tests used:
[1] = test system: A549 lung cancer cell line; experiment: MTT assay, 48 h continuous drug exposure, A549; assay type: cell-based, human
Experimental: (§1) Some of the C8-linked diaryl ether-PBD hybrids have been tested against eleven human tumour cell lines derived from seven cancer types (lung cancer, colon cancer, cervix, ovarian cancer, oral cancer, prostate cancer and breast cancer) as per Tata protocol as shown in Table 2. For each compound, dose response curves for each cell line were measured at a minimum of five concentrations at 10 fold dilutions. A protocol of 48 h continuous drug exposure was used and a MTT assay was used to estimate cell viability or growth. The percent of cell growth (GI50) compared with the control was calculated. Some of the compounds have been evaluated for their in vitro cytotoxicity in eleven cell lines from seven human cancer types. The results are expressed as GI50 determined relative to that of untreated control cells (Table-2).

[2] = test system: duplex-form calf thymus DNA (CT-DNA); experiment: Thermal denaturation studies with calf thymus DNA (DNA binding affinity); conditions: [PBD]:[DNA] molar ratio 1:5, CT-DNA 100 μM, ligand 20 μM, sodium phosphate buffer pH 7.00; for (ΔTm ° C.) after incubation at 37° C. for 0 h: 0 h at 37° C.; for (ΔTm ° C.) after incubation at 37° C. for 18 h: 18 h at 37° C.
Experimental: DNA Binding Affinity of Diaryl Ether Linked PBD Hybrids: Compounds have been subjected to thermal denaturation studies with duplex-form calf thymus DNA (CT-DNA) using a modification of a reported procedure (Newman, M. S. Carcinog-compr. Surv. 1976, 1, 203; ([…].; Loy, M.; Hoffman, Carcinog-compr. […] The DNA-PBD solutions have been incubated at 37° C. for 0 and 18 h prior to analysis. […] DNA helix→coil transition temperatures (Tm) have been obtained from the maxima in the d(A260)/dT derivative plots. […] The DNA binding activity for these novel C8-linked diaryl ether PBD hybrids has been examined by thermal denaturation studies using calf thymus (CT) DNA. […] The data for the compounds are included in Table 1 for comparison.

[3] = test system: MCF7 breast cancer cell line; experiment: MTT assay, 48 h continuous drug exposure, MCF7; assay type: cell-based, human
Experimental: as §1

[4] = test system: Colo205 colon cancer cell line; experiment: MTT assay, 48 h continuous drug exposure, Colo205; assay type: cell-based, human
Experimental: as §1

[5] = test system: PC3 prostrate cancer cell line; experiment: MTT assay, 48 h continuous drug exposure, PC3; assay type: cell-based, human; conditions: prostrate cancer cell line, 48 h exposure, MTT, read-out: GI50 PC3
Experimental: (§2) For each compound, dose response curves for each cell line were measured at a minimum of five concentrations at 10 fold dilutions. A protocol of 48 h continuous drug exposure was used and a MTT assay was used to estimate cell viability or growth. The percent of cell growth (GI50) compared with the control was calculated.

[6] = test system: Gurav oral cancer cell line; experiment: MTT assay, 48 h continuous drug exposure, Gurav; assay type: cell-based, human; conditions: oral cancer cell line, 48 h exposure, MTT, read-out: GI50 Gurav
Experimental: as §2

[7] = test system: SiHa Cervix cancer cell line; experiment: MTT assay, 48 h continuous drug exposure, SiHa; assay type: cell-based, human; conditions: Cervix cancer cell line, 48 h exposure, MTT, read-out: GI50 SiHa
Experimental: as §2

[8] = test system: A2780 ovarian cancer cell line; experiment: MTT assay, 48 h continuous drug exposure, A2780; assay type: cell-based, human; conditions: ovarian cancer cell line, 48 h exposure, MTT, read-out: GI50 A2780
Experimental: as §2

[9] = test system: DWD oral cancer cell line; experiment: MTT assay, 48 h continuous drug exposure, DWD; assay type: cell-based, human; conditions: oral cancer cell line, 48 h exposure, MTT, read-out: GI50 DWD
Experimental: as §2

[10] = test system: ZR-751 breast cancer cell line; experiment: MTT assay, 48 h continuous drug exposure, ZR-751; assay type: cell-based, human; conditions: breast cancer cell line, 48 h exposure, MTT, read-out: GI50 ZR-751
Experimental: as §2

[11] = test system: Hop62 lung cancer cell line; experiment: MTT assay, 48 h continuous drug exposure, Hop62; assay type: cell-based, human; conditions: lung cancer cell line, 48 h exposure, MTT, read-out: GI50 Hop62
Experimental: as §2

[12] = Homo sapiens, A549, 48 h exposure
[13] = Homo sapiens, MCF7, 48 h exposure
[14] = Homo sapiens, COLO 205, 48 h exposure

Row | Structure (SMILES) | (ΔTm ° C.) after incubation at 37° C. for 0 h [2] [°C] | (ΔTm ° C.) after incubation at 37° C. for 18 h [2] [°C] | GI50 ([1]; 48 h exposure) [µM] | GI50 [5] [µM] | GI50 [6] [µM] | GI50 [7] [µM] | GI50 [8] [µM] | GI50 [9] [µM] | GI50 [10] [µM] | GI50 ([3]; 48 h exposure) [µM] | GI50 ([4]; 48 h exposure) [µM] | GI50 [11] [µM] | other results
1 | COc1ccc(Oc2ccc(O)cc2N)cc1OC [5b, 3-amino-4-(3,4-dimethoxyphenoxy)phenol, reference compound] | 0.1 | 0.2 | – | – | – | – | – | – | – | – | – | – | GI50 [1, 12]: > 50 µM; GI50 [3, 13]: > 50 µM; GI50 [4, 14]: > 50 µM
2 | COc1ccc(Oc2ccc(C(=O)N3CCNCC3)cc2N)cc1OC [7b, [3-amino-4-(3,4-dimethoxyphenoxy)phenyl](piperazino)methanone, reference compound] | 0.2 | 0.5 | – | – | – | – | – | – | – | – | – | – | GI50 [1, 12]: > 50 µM; GI50 [3, 13]: > 50 µM; GI50 [4, 14]: > 50 µM
3 | COc1ccc(Oc2cc(OCCCCCOc3cc4c(cc3OC)C(=O)N3CCC[C@H]3C=N4)ccc2N)cc1 [10g, 7-Methoxy-(8-5-[4-amino-3-(4-methoxyphenoxy)phenoxy]pentyloxy)-(11aS)-1,2,3,11a-tetrahydro-5H-pyrrolo[2,1-c][1,4]benzodiazepin-5-one] | 2.9 | 3.6 | 2.84 | 2.84 | 2.43 | 1.56 | 2.3 | 2.4 | 3.1 | 2.3 | 1.5 | 2.1 | –
4 | COc1ccc(Oc2cc(OCCCCCOc3cc4c(cc3OC)C(=O)N3CCC[C@H]3C=N4)ccc2N)cc1OC [11g, 7-Methoxy-(8-5-[4-amino-3-(3,4-dimethoxyphenoxy)phenoxy]pentyloxy)-(11aS)-1,2,3,11a-tetrahydro-5H-pyrrolo[2,1-c][1,4]benzodiazepin-5-one] | 4.1 | 5.5 | 2.01 | 2.25 | 0.16 | 1.99 | 0.17 | 0.18 | 2.5 | 0.16 | 0.17 | 2.43 | –
5 | COc1cc2c(cc1OCCCCCOc1ccc(N)c(Oc3cc(OC)c(OC)c(OC)c3)c1)N=C[C@@H]1CCCN1C2=O [12g, 7-Methoxy-(8-5-[4-amino-3-(3,4,5-trimethoxyphenoxy)phenoxy]pentyloxy)-(11aS)-1,2,3,11a-tetrahydro-5H-pyrrolo[2,1-c][1,4]benzodiazepin-5-one] | 4.2 | 5.1 | 0.19 | 2.19 | 0.17 | 2.86 | 0.17 | 0.17 | 2.1 | 0.16 | 0.16 | 2.86 | –
6 | COc1ccc(Oc2ccc(OCCCCCOc3cc4c(cc3OC)C(=O)N3CCC[C@H]3C=N4)cc2I)cc1 [16c] | 3.6 | 4.6 | 2.7 | 2.12 | 2.23 | 1.42 | 2.3 | 2.6 | 3.3 | 2.1 | 2.22 | 1.5 | –
7 | COc1ccc(Oc2ccc(OCCCCCOc3cc4c(cc3OC)C(=O)N3CCC[C@H]3C=N4)cc2I)cc1OC [17c] | 3.9 | 4.8 | 2.45 | 2.56 | 2.27 | 2.35 | 2.8 | 2.7 | 3.8 | 2.6 | 2.26 | 1.12 | –
8 | COc1ccc(Oc2cc(OCCCCCOc3cc4c(cc3OC)C(=O)N3CCC[C@H]3C=N4)ccc2I)cc1OC [17g, 7-Methoxy-(8-5-[4-iodo-3-(3,4-dimethoxyphenoxy)phenoxy]pentyloxy)-(11aS)-1,2,3,11a-tetrahydro-5H-pyrrolo[2,1-c][1,4]benzodiazepin-5-one] | 4.3 | 5.1 | 1.65 | 0.17 | 0.19 | 0.19 | 0.18 | 0.18 | 1.95 | < 0.1 | 2.2 | 2.25 | –
9 | COc1cc2c(cc1OCCCCCOc1ccc(Oc3cc(OC)c(OC)c(OC)c3)c(I)c1)N=C[C@@H]1CCCN1C2=O [18c] | 4.6 | 5.5 | 3.04 | 2.57 | 2.68 | 2.22 | 3.1 | 3 | 2.78 | 3.6 | 3.12 | 2.01 | –
10 | COc1ccc(Oc2cccc(OCCCCCOc3cc4c(cc3OC)C(=O)N3CCC[C@H]3C=N4)c2[N+](=O)[O-])cc1 [19g, 7-Methoxy-(8-3-[3-(4-methoxyphenoxy)-2-nitrophenoxy]pentyloxy)-(11aS)-1,2,3,11a-tetrahydro-5H-pyrrolo[2,1-c][1,4]benzodiazepin-5-one] | 4.9 | 5.8 | 2.22 | 2.84 | 2.26 | 1.62 | 2.3 | 2.3 | 2.5 | 2 | 0.17 | 2.5 | –
11 | COc1ccc(Oc2ccc(OCCCCCOc3cc4c(cc3OC)C(=O)N3CCC[C@H]3C=N4)cc2[N+](=O)[O-])cc1OC [20c, 7-Methoxy-(8-3-[4-(3,4-dimethoxyphenoxy)-3-nitrophenoxy]pentyloxy)-(11aS)-1,2,3,11a-tetrahydro-5H-pyrrolo[2,1-c][1,4]benzodiazepin-5-one] | 4.9 | 5.6 | 0.15 | 0.16 | 1.24 | 2.47 | 0.14 | 0.13 | 0.13 | 0.14 | 0.13 | 0.14 | –
12 | COc1ccc(Oc2cccc(OCCCCCOc3cc4c(cc3OC)C(=O)N3CCC[C@H]3C=N4)c2[N+](=O)[O-])cc1OC [20g, 7-Methoxy-(8-3-[3-(3,4-dimethoxyphenoxy)-2-nitrophenoxy]pentyloxy)-(11aS)-1,2,3,11a-tetrahydro-5H-pyrrolo[2,1-c][1,4]benzodiazepin-5-one] | 4.5 | 6.0 | 0.19 | 2.25 | 0.16 | 2.5 | 2 | 0.18 | 0.19 | 2.1 | 0.17 | 0.19 | –
13 | COc1cccc2c1C(=O)c1c(O)c3c(c(O)c1C2=O)C[C@@](O)(C(=O)CO)C[C@@H]3O[C@H]1C[C@H](N)[C@H](O)[C@H](C)O1 [ADR, adriamycin, reference compound] | – | – | – | – | – | – | – | – | – | – | – | – | GI50 [1, 12]: < 0.1 µM; GI50 ([5]; Homo sapiens): 0.16 µM; GI50 ([6]; Homo sapiens, Gurav): < 0.1 µM; GI50 ([7]; Homo sapiens, SiHa): 0.16 µM; GI50 ([8]; Homo sapiens, A2780): < 0.1 µM; GI50 ([9]; Homo sapiens): 0.12 µM; GI50 ([10]; Homo sapiens, ZR-75-1): 0.11 µM; GI50 [3, 13]: 0.13 µM; GI50 [4, 14]: < 0.1 µM; GI50 ([11]; Homo sapiens, HOP-62): 0.15 µM
